{"source": "patent US11053236B2", "about": "“Substituted isoselenazolone anti-infective, anti-inflammatory, anti-cancer, cytoprotective, neuroprotective, and anti-oxidant agents” (priority 2016, dated 2021)", "key": {"[1]": {"test_system": "Mycobacterium tuberculosis H37Rv", "assay": "Minimum inhibitory concentration for Mycobacterium tuberculosis H37Rv strain (Table A)", "assay_type": "cell-based", "conditions": "for MIC / MIC50: Mycobacterium tuberculosis, Strain Mtb H37Rv"}, "[2]": {"test_system": "Mtb H37Rv", "assay": "microbe, parasite or virus in culture", "assay_type": "cell-based", "conditions": "Mycobacterium tuberculosis, MABA"}, "[3]": {"target": "Mtb Ag85C (Mycobacterium tuberculosis, UniProt P9WQN9)", "sequence (P9WQN9 46-340 limits assumed)": "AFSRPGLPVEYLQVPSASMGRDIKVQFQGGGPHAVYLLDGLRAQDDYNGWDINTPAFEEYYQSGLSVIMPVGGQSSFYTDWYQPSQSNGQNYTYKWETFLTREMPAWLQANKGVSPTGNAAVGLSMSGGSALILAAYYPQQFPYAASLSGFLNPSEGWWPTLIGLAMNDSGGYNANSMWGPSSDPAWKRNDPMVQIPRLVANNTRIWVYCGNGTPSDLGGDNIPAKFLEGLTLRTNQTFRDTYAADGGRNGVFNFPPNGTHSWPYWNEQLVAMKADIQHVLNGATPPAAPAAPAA", "assay": "Fluorometric resorufin butyrate/trehalose assay of Mtb Ag85C activity", "assay_type": "biochemical", "conditions": "for remaining activity at 5 µM: 5 μM compound, 40 min of incubation, normalized to control without inhibitor, read-out: Percent of Mtb Ag85C activity remaining"}, "[4]": {"target": "Ag85C (Mycobacterium tuberculosis, UniProt P9WQN9)", "sequence (P9WQN9 46-340)": "as the sequence (P9WQN9 46-340 limits assumed) above", "assay": "Activity of Ag85C modified by compounds over time (FIGS. 6A-6B)", "assay_type": "biochemical", "description": "FIGS. 6A-6B: Activity of Ag85C modified by compounds 506e (FIG. 6A) and 506f (FIG. 6B) over time.\nFIGS. 6A-6B show the activity of Ag85C modified by compounds 506e and 506f over time."}, "[5]": {"test_system": "MRHF cells treated with TcdB and TcdA", "assay": "Cytotoxicity assay: inhibition of toxin-induced cell rounding", "assay_type": "cell-based, human", "conditions": "0.05 mL of 40 μM compound mixed with 0.05 mL TcdB and TcdA solution, 30 min; MRHF cells 2 h", "protocol": "Cytotoxicity data was collected using a qualitative assay designed by Quidel to detect TcdB and TcdA presence in patients' stool samples. A solution containing TcdB and TcdA (0.05 mL) was mixed with 0.05 mL of a 40 μM solution of compounds of example 1-15 individually. These solutions were then incubated together for thirty minutes at room temperature. Then the 0.1 ml solutions were used to treat MRHF cells in a twenty four well plate. The cells were then incubated at thirty degrees Celsius under CO2 for two hours. Then, the cells were imaged using a 20× objective on an inverted microscope. […] Thus, compound 506o provides cytoprotection against Clostridium difficile toxins TcdB and TcdA."}}}
{"compound": "O=c1c2ccccc2[se]n1C12CC3CC(CC(C3)C1)C2", "values": [{"measurement": "melting point", "result": "215 to 217", "unit": "°C"}]}
{"compound": "[N-]=[N+]=Nc1ccc(-n2[se]c3ccccc3c2=O)cc1", "values": [{"measurement": "melting point", "result": "169 to 170", "unit": "°C"}]}
{"compound": "COc1ccc(Cn2[se]c3ccccc3c2=O)cc1", "note": "[Compound 506a, 2-(4-methoxybenzyl)benzo[d][1,2]selenazol-3(2H)-one]", "values": [{"measurement": "MIC", "setting": "[1]", "result": 25, "unit": "µg/mL"}, {"measurement": "MIC50", "setting": "[1]", "result": 18.3, "unit": "µg/mL"}]}
{"compound": "O=c1c2ccccc2[se]n1CC1CCCCC1", "note": "[Compound 506f, 2-(cyclohexylmethyl)benzo[d][1,2]selenazol-3(2H)-one]", "values": [{"measurement": "MIC", "setting": "[2]", "result": "≥ 50", "unit": "µg/mL"}, {"measurement": "MIC", "setting": "[1]", "result": 50, "unit": "µg/mL"}, {"measurement": "MIC50", "setting": "[1]", "result": 36.2, "unit": "µg/mL"}, {"measurement": "remaining activity at 5 µM", "setting": "[3]", "result": 30, "unit": "%"}, {"measurement": "Activity of Ag85C modified by compound over time", "setting": "[4]", "result": "decrease in the activity of Ag85C"}]}
{"compound": "COc1ccccc1Cn1[se]c2ccccc2c1=O", "note": "[Compound 506c, 2-(2-methoxybenzyl)benzo[d][1,2]selenazol-3(2H)-one]", "values": [{"measurement": "MIC", "setting": "[2]", "result": 12.5, "unit": "µg/mL"}, {"measurement": "MIC values against Mycobacterium tuberculosis compared with ebselen", "setting": "[1]", "result": "lower than ebselen"}, {"measurement": "MIC", "setting": "[1]", "result": 12.5, "unit": "µg/mL"}, {"measurement": "MIC50", "setting": "[1]", "result": 10.4, "unit": "µg/mL"}, {"measurement": "remaining activity at 5 µM", "setting": "[3]", "result": 36, "unit": "%"}, {"measurement": "melting point", "result": "169 to 170", "unit": "°C"}]}
{"compound": "[N-]=[N+]=Nc1ccc(NC(=O)c2ccccc2[Se]C#Cc2ccccc2)cc1", "note": "[Compound 208, N-(4-Azidophenyl)-2-((phenylethynyl)selanyl)-benzamide]", "values": [{"measurement": "MIC", "setting": "[2]", "result": "≥ 50", "unit": "µg/mL"}]}
{"compound": "COc1ccc(-n2[se]c3ccccc3c2=O)cc1", "note": "[Compound 506b, 2-(4-methoxyphenyl)benzo[d][1,2]selenazol-3(2H)-one]", "values": [{"measurement": "MIC", "setting": "[1]", "result": 25, "unit": "µg/mL"}, {"measurement": "MIC50", "setting": "[1]", "result": 19.3, "unit": "µg/mL"}]}
{"compound": "C=CCn1[se]c2ccccc2c1=O", "note": "[Compound 506e, 2-allylbenzo[d][1,2]selenazol-3(2H)-one]", "values": [{"measurement": "MIC", "setting": "[2]", "result": 12.5, "unit": "µg/mL"}, {"measurement": "MIC values against Mycobacterium tuberculosis compared with ebselen", "setting": "[1]", "result": "lower than ebselen"}, {"measurement": "MIC", "setting": "[1]", "result": 12.5, "unit": "µg/mL"}, {"measurement": "MIC50", "setting": "[1]", "result": 10.4, "unit": "µg/mL"}, {"measurement": "remaining activity at 5 µM", "setting": "[3]", "result": 15, "unit": "%"}, {"measurement": "IC50", "setting": "[3]; 15 min of incubation, read-out: Apparent IC50 (appIC50) against Mtb Ag85C", "result": 8.8, "unit": "µM"}, {"measurement": "Activity of Ag85C modified by compound over time", "setting": "[4]", "result": "decrease in the activity of Ag85C"}]}
{"compound": "CC(C)(C)n1[se]c2ccccc2c1=O", "values": [{"measurement": "melting point", "result": "137 to 139", "unit": "°C"}]}
{"compound": "CC(C)Cn1[se]c2ccccc2c1=O", "values": [{"measurement": "melting point", "result": "114 to 116", "unit": "°C"}]}
{"compound": "O=C(CCCCC1SC[C@@H]2NC(=O)N[C@H]12)NCCOCCOCCOCCNC(=O)CCC(=O)N1Cc2ccccc2-c2nnn(-c3ccc(-n4[se]c5ccccc5c4=O)cc3)c2-c2ccccc21", "note": "(stereo partly drawn) [Compound 210, N-(13,16-dioxo-16-(3-(4-(3-oxobenzo[d][1,2]selenazol-2(3H)-yl)phenyl)-3,9-dihydro-8H-dibenzo[b,f][1,2,3]triazolo[4,5-d]azocin-8-yl)-3,6,9-trioxa-12-azahexadecyl)-5-((3aS,6aR)-2-oxohexahydro-1H-thieno[3,4-d]imidazol-4-yl)pentanamide]", "values": [{"measurement": "MIC", "setting": "[2]", "result": "≥ 50", "unit": "µg/mL"}, {"measurement": "remaining activity at 5 µM", "setting": "[3]", "result": 61, "unit": "%"}]}
{"compound": "O=c1c2ccccc2[se]n1C1CCCCC1", "note": "[Compound 506m, 2-Cyclohexylbenzo[d][1,2]selenazol-3(2H)-one]", "values": [{"measurement": "remaining activity at 5 µM", "setting": "[3]", "result": 44, "unit": "%"}]}
{"compound": "O=c1c2ccccc2[se]n1Cc1ccccc1", "note": "[Compound 506d, 2-benzylbenzo[d][1,2]selenazol-3(2H)-one]", "values": [{"measurement": "MIC", "setting": "[1]", "result": 25, "unit": "µg/mL"}, {"measurement": "MIC50", "setting": "[1]", "result": 15, "unit": "µg/mL"}]}
{"compound": "O=c1c2ccccc2[se]n1-c1ccccc1", "note": "[Ebselen, 2-phenyl-1,2-benzisoselenazol-3(2H)-one, reference compound]", "values": [{"measurement": "MIC", "setting": "[2]", "result": 12.5, "unit": "µg/mL"}, {"measurement": "MIC", "setting": "[1]", "result": 12.5, "unit": "µg/mL"}, {"measurement": "MIC50", "setting": "[1]", "result": 9.59, "unit": "µg/mL"}, {"measurement": "remaining activity at 5 µM", "setting": "[3]", "result": 17, "unit": "%"}, {"measurement": "Inhibition of cell rounding (cell appearance)", "setting": "[5]", "result": "maintained their string-like appearance"}]}
{"compound": "O=c1c2ccccc2[se]n1C1CCCC1", "note": "[Compound 506l, 2-Cyclopentylbenzo[d][1,2]selenazol-3(2H)-one]", "values": [{"measurement": "remaining activity at 5 µM", "setting": "[3]", "result": 40, "unit": "%"}, {"measurement": "melting point", "result": "119 to 120", "unit": "°C"}]}
{"compound": "O=c1c2ccccc2[se]n1-c1ccccn1", "note": "[Compound 506o, 2-(Pyridin-2-yl)benzo[d][1,2]selenazol-3(2H)-one]", "values": [{"measurement": "Inhibition of cell rounding (cell appearance)", "setting": "[5]", "result": "more intermediate phenotype"}]}
